These results are taken from US20110028566A1, “COMPOSITIONS AND PRODUCTS CONTAINING CYCLOALIPHATIC DIOL ANTIMICROBIAL AGENTS AND METHODS OF USING THE COMPOSITIONS AND PRODUCTS” (EASTMAN CHEMICAL COMPANY, priority 2009, published 2011).

This experiment has as its system Candida albicans. The experiment can be described thus: Microbial challenge testing in BPW. Format: cell-based. As for the experimental part: The microorganisms used in challenge tests are given in Table 3, designated as either ATCC (American Type Culture Collection) or wild type. These wild type organisms were problematic organisms previously isolated from chemical products. In the description for each organism, the bacteria are indicated as either GN (Gram negative) or GP (Gram positive).
All of the microorganisms were grown in Tryptose Soy Broth (TSB), DIFCO™ available from Becton, Dickinson and Company, containing 1% dextrose. Aspergillus niger and Candida albicans were incubated at 22° C.±2° C. for at least 96 hours. All bacteria were incubated at 35° C.±2° C. in a humidified incubator for at least 96 hours.
Aspergillus niger and Candida albicans were also grown on Sabouraud dextrose agar (SDA) at 22° C.±2° C. for 7 to 14 days or until full sporulation was achieved.
The following procedure was followed to determine the amount of each challenge material (inoculum broth) required to produce a 10^8 cfu/mL challenge, which is equivalent to a final test-sample microbial concentration of 10^5 to 10^6 cfu (colony-forming units)/mL.
Using a sterile serological pipette, 1 mL of the growth from each TSB culture was transferred into tubes containing 9 mL phosphate buffer (pH 7.2) and mixed thoroughly. This process was repeated to make serial 1:10 dilutions. Then 0.1 mL of each sample and dilution was inoculated onto agar plates to produce the equivalent of a further 1:10 dilution. C. albicans and A. niger were inoculated onto SDA and bacteria were inoculated onto Plate Count Agar (PCA), DIFCO™ available from Becton, Dickinson and Company. The 0.1 mL aliquots were evenly distributed on the plates using the spread-plate technique. The spread-plate technique is performed by spreading the aliquot over the entire plate surface using a sterile spreading rod while rotating the plate with a rotary auto-plater. After the inoculum was absorbed completely, each plate was inverted and incubated (fungi at 22° C.±2° C. and bacteria at 35° C.±2° C.).
After incubation for at least 48 hours, colonies that had developed on the agar plates were counted and recorded with the corresponding dilution. If counting had to be delayed temporarily, plates were refrigerated, preferably no more than 24 hours, until they could be counted. The number of cfu/mL was determined by multiplying the count by the dilution factor for that particular plate.
Turbidity in Nepholemetric Turbidity Units (NTU) was measured for each serial dilution using the HF-Micro 100 Model Turbidimeter. For each microorganism, the plate counts were compared to the turbidity readings.
On the day of challenge, the Candida albicans inoculum broth was poured through non-absorbent sterile gauze and centrifuged. The […] was then diluted with phosphate buffer (pH 7.2) until the desired turbidity was reached. Using a hemocytometer, a determination was made whether the challenge contained the desired concentration. Dilutions were made through 1.0×10^8 and three SDA spread plates were inoculated with 0.1 mL of each dilution.
Control substrates (“broth alone”) were prepared for each microorganism separately in triplicate by adding 13.5 mL of BPW (pH 7.0) containing 1% (w/v) dextrose to each 20-mL glass tube; then adding 1.5 mL challenge material to produce a final concentration at time zero of 10^5 to 10^6 cfu/mL and a total volume of 15 mL.
Test sample substrates were prepared containing each test material (1,4-CHDM, etc) or combination of test materials at the concentrations shown in Tables 5 and 6.

Take `O=C([O-])CN(CCN(CC(=O)O)CC(=O)O)CC(=O)[O-].[Na+].[Na+]` [EDTA, ethylenediaminetetraacetic acid disodium salt]: where the note is “BPW, 3 days incubation, w/v % in label, average of replicates”, the “Grade code, C. albicans, 3 Day” value is given as 4 (1001 to 10,000 colonies (thus 10,000 cfu/mL to 100,000 cfu/mL)). For the same compound, the “Grade code, C. albicans, 14 Day” value (BPW, 14 days incubation, w/v % in label, average of replicates) is reported as 5 (More than 10,000 colonies estimated (thus >100,000 cfu/mL)). The “Grade code, C. albicans, 30 Days” value (BPW, 30 days incubation, w/v % in label, average of replicates) is on record as 5 (More than 10,000 colonies estimated (thus >100,000 cfu/mL)).
`CC1(C)C(O)C(C)(C)C1O` (stereo not drawn) [TMCD, 2,2,4,4-tetramethyl-1,3-cyclobutanediol]: the “Grade code C. albicans” value by setting is: (0.5%, 3 days incubation) 4 (1001 to 10,000 colonies (thus 10,000 cfu/mL to 100,000 cfu/mL)); (0.5%, 14 days incubation) 4 (1001 to 10,000 colonies (thus 10,000 cfu/mL to 100,000 cfu/mL)); (0.5%, 30 days incubation) 4 (1001 to 10,000 colonies (thus 10,000 cfu/mL to 100,000 cfu/mL)); (1.25%, 3 days incubation) 3 (101 to 1000 colonies (thus 1000 to 10,000 cfu/mL)); (1.25%, 14 days incubation) 4 (1001 to 10,000 colonies (thus 10,000 cfu/mL to 100,000 cfu/mL)); (1.25%, 30 days incubation) 4 (1001 to 10,000 colonies (thus 10,000 cfu/mL to 100,000 cfu/mL)). The “Grade code C. albicans” value by setting is: (2.5%, 3 days incubation) 3 (101 to 1000 colonies (thus 1000 to 10,000 cfu/mL)); (2.5%, 14 days incubation) 2 (52 to 100 colonies counted (thus 520 to 1000 cfu/mL)); (2.5%, 30 days incubation) 2 (52 to 100 colonies counted (thus 520 to 1000 cfu/mL)).
